Source: paper PMC11091220, “Metabolism-driven in vitro/in vivo disconnect of an oral ERɑ VHL-PROTAC” (Communications Biology, 2024)
Read-outs that look alike come from different tables or passages of the source.

What was measured:
[1] = Mouse pharmacokinetics, i.v./oral and enabling formulations; assay type: in vivo
Procedure: (*) AUC0-6 (data BLQ beyond 6 hours). TEXT PRINTED IN THE PICTURE: (e) Formulation SF: Dose normalised Cmax (μM): 0.009 (Oral dose (mg/kg): 1); Dose normalised AUC0-12 (μM.h): 0.02* (Oral dose (mg/kg): 1) | (e) Formulation EF1: Dose normalised Cmax (μM): 0.023 (Oral dose (mg/kg): 100); Dose normalised AUC0-12 (μM.h): 0.22 (Oral dose (mg/kg): 100) | (e) Formulation EF2: Dose normalised Cmax (μM): 0.002 (Oral dose (mg/kg): 100); Dose normalised AUC0-12 (μM.h): 0.009 (Oral dose (mg/kg): 100) | (e) Formulation EF3: Dose normalised Cmax (μM): 0.045 (Oral dose (mg/kg): 100); Dose normalised AUC0-12 (μM.h): 0.12 (Oral dose (mg/kg): 100); Dose normalised Cmax (μM): 0.016 (Oral dose (mg/kg): 30); Dose normalised AUC0-12 (μM.h): 0.06* (Oral dose (mg/kg): 30); Dose normalised Cmax (μM): 0.017 (Oral dose (mg/kg): 10); Dose normalised AUC0-12 (μM.h): 0.06* (Oral dose (mg/kg): 10) | (e) Formulation EF4: Dose normalised Cmax (μM): 0.022 (Oral dose (mg/kg): 100); Dose normalised AUC0-12 (μM.h): 0.10 (Oral dose (mg/kg): 100) | (e) Formulation EF5: Dose normalised Cmax (μM): 0.050 (Oral dose (mg/kg): 100); Dose normalised AUC0-12 (μM.h): 0.25 (Oral dose (mg/kg): 100); Dose normalised Cmax (μM): 0.013 (Oral dose (mg/kg): 30); Dose normalised AUC0-12 (μM.h): 0.045* (Oral dose (mg/kg): 30); Dose normalised Cmax (μM): 0.023 (Oral dose (mg/kg): 10); Dose normalised AUC0-12 (μM.h): 0.076* (Oral dose (mg/kg): 10)
Each plasma sample ([…]) was prepared using an appropriate dilution factor, and compared against an 11-point standard calibration curve (1-10000 nM) prepared in DMSO and spiked into blank plasma. Acetonitrile ([…]) was added with the internal standard, followed by centrifugation at 3000 rpm for 10 minutes. The supernatant ([…]) was then diluted in […] acetonitrile:water (75:25) and analyzed via UPLC-MS/MS.
The MS/MS instrument used was either a Waters XEVO® TQ-S, Waters XEVO® TQ-D, or API 4000 (AB Sciex). The ultra-mass spectrometer used for sample analysis was completed in the MRM mode (MS/MS). Reverse-phase HPLC with a C18 column was used to separate the analytes. A mobile phase of 99% water/0.1% formic acid (solvent A) and a solvent phase of 99% acetonitrile/0.1% formic acid (solvent B) was used. A generic LC gradient elution was used at a flow rate of 0.5 mL/min with 95% solvent A and 5% solvent B for 0.3 min after which the concentration of solvent B was increased to 95% over 0.9 min before restoring it back to 5% for the remaining 0.5 min. Mass spectrometer methods were optimised for each compound.

MCF7 cells = test: Cell proliferation assay (Sytox Green), MCF7; assay type: cell-based; conditions: Homo sapiens, 144 h; MCF7, 6 days; read-out: growth inhibition IC50
Procedure: Cell proliferation was assessed by measuring live cell numbers using the Sytox Green assay. MCF7 and CAMA1 cells were seeded in 96-well clear-bottom black microplates (Costar) at 4x10^3 and 8x10^3 cells per well, respectively, based on the doubling time of each cell line. Plates were incubated at 37 °C, 5% CO2 for 24 hours prior to being treated with DMSO, AZ’6421 or fulvestrant in a 10-point concentration range, with a final DMSO concentration of 0.1%. A single plate was left untreated, designated a Day 0 plate. The number of live cells was determined at Day 0 and Day 7 using the Sytox green assay. Briefly, 5 mM Sytox green nucleic acid dye (Invitrogen) was diluted 1:2500 in 500 mM tris-buffered saline (TBS) with ethylenediaminetetraacetic acid (EDTA) and 7 μL was added per well. Plates were then incubated in the dark at room temperature for 1 hour and the number of green cells in each well (dead cells) was measured using an Acumen Explorer high-throughput cell imager (TTP Labtech). Next, 14 μL of 0.25% w/v Saponin in TBS/EDTA solution was added overnight to permeabilize the cells, permitting a total cell count. The number of live cells was calculated by subtracting the dead cell count from the total cell count. The data obtained were then used to perform curve fitting analysis using GraphPad Prism. Average cell counts from the Day 0 plate were used to determine 0% cell growth. […]

[2] = Mouse microsome intrinsic clearance; assay type: in vitro ADME
Procedure: Mouse liver microsomes (Male CD-1) are obtained from Corning at a concentration of 20 mg/mL protein. The test compound was prepared to 10 mM in 100% DMSO and further diluted to 100 μM in 100% acetonitrile. The microsomal incubations were prepared in phosphate buffered solution pH 7.4 containing 1 mg/mL microsomal protein, 1 mM NADPH and a final compound concentration of 1 μM. Following a pre-incubation with NADPH for 8 min, reactions were initiated through the addition of the test compound (final volume 250 µL) and incubated at 37 °C in a water bath for 30 min. At each time point (0.5, 5, 10, 15, 20, 30 min) 20 μL of incubation mixture was quenched with 100 μL of 100% ice cold acetonitrile. Samples were shaken at 800 rpm for 2 min and centrifuged at 4000 rpm for 20 min at 4 °C to pellet precipitated protein. The supernatant fraction was diluted 1:5 with deionised water, shaken at 1000 rpm for 2 min, and further diluted 1:1 with deionised water. Samples were analysed by LC-MS/MS[17].

[3] = Experimental PSA (ePSA), chromatographic method; assay type: physicochemical

Cc1ncsc1-c1ccc(CNC(=O)[C@@H]2C[C@@H](O)CN2C(=O)[C@@H](NC(=O)COCCCOCCCOc2cc(F)c([C@@H]3c4[nH]c5ccccc5c4C[C@@H](C)N3CC(C)(C)F)c(F)c2)C(C)(C)C)cc1 [Compound 5]
Plasma conc (total) ([1]; IV 0.5 mg/kg, mouse, 0.03 h, listed as AZ'6421, 0.5 mg/kg): 1770 nM | Plasma conc (total) ([1]; IV 0.5 mg/kg, 0.17 h, listed as AZ'6421, 0.5 mg/kg): 219 nM | Plasma conc (total) ([1]; IV 0.5 mg/kg, 0.5 h, listed as AZ'6421, 0.5 mg/kg): 58.2 nM | Plasma conc (total) ([1]; IV 0.5 mg/kg, 1 h, listed as AZ'6421, 0.5 mg/kg): 27.9 nM | Plasma conc (total) ([1]; IV 0.5 mg/kg, 2 h, listed as AZ'6421, 0.5 mg/kg): 15.2 nM | Plasma conc (total) ([1]; IV 0.5 mg/kg, 4 h, listed as AZ'6421, 0.5 mg/kg): 6.74 nM | Plasma conc (total) ([1]; IV 0.5 mg/kg, 6 h, listed as AZ'6421, 0.5 mg/kg): 4.38 nM | Plasma conc (total) ([1]; IV 0.5 mg/kg, 8 h, listed as AZ'6421, 0.5 mg/kg): 2.82 nM | Plasma conc (total) ([1]; Oral 1 mg/kg in SF, mouse, 0.5 h, listed as AZ'6421, 1 mg/kg): 4.03 nM | Plasma conc (total) ([1]; Oral 1 mg/kg in SF, 1 h, listed as AZ'6421, 1 mg/kg): 6.69 nM | concentration at 0.03 h ([1]; mouse, plasma, iv, 0.5 mg/kg, IV 0.5 mg/kg, mouse, 0.03 h, read-out: Plasma conc (total)): 1990 nM | concentration at 0.17 h ([1]; mouse, plasma, iv, 0.5 mg/kg, IV 0.5 mg/kg, 0.17 h, read-out: Plasma conc (total)): 261 nM | concentration at 0.5 h ([1]; mouse, plasma, iv, 0.5 mg/kg, IV 0.5 mg/kg, 0.5 h, read-out: Plasma conc (total)): 89 nM | concentration at 1 h ([1]; mouse, plasma, iv, 0.5 mg/kg, IV 0.5 mg/kg, 1 h, read-out: Plasma conc (total)): 41.9 nM | concentration at 2 h ([1]; mouse, plasma, iv, 0.5 mg/kg, IV 0.5 mg/kg, 2 h, read-out: Plasma conc (total)): 16.9 nM | concentration at 4 h ([1]; mouse, plasma, iv, 0.5 mg/kg, IV 0.5 mg/kg, 4 h, read-out: Plasma conc (total)): 7.09 nM | concentration at 6 h ([1]; mouse, plasma, iv, 0.5 mg/kg, IV 0.5 mg/kg, 6 h, read-out: Plasma conc (total)): 3.27 nM | concentration at 8 h ([1]; mouse, plasma, iv, 0.5 mg/kg, IV 0.5 mg/kg, 8 h, read-out: Plasma conc (total)): 2.02 nM | clearance ([1]; mouse, plasma, iv, 0.5 mg/kg i.v., read-out: mouse in vivo clearance): 22 mL/min/kg | concentration at 0.5 h ([1]; mouse, plasma, po, 1 mg/kg, Oral 1 mg/kg in SF, mouse, 0.5 h, read-out: Plasma conc (total)): 2.24 nM | concentration at 1 h ([1]; mouse, plasma, po, 1 mg/kg, Oral 1 mg/kg in SF, 1 h, read-out: Plasma conc (total)): 9.06 nM | concentration at 4 h ([1]; mouse, plasma, po, 1 mg/kg, Oral 1 mg/kg in SF, 4 h, read-out: Plasma conc (total)): 2.98 nM | AUC ([1]; plasma, po, 1 mg/kg p.o., SF, mouse, read-out: oral exposure (AUC)): 0.02 µM·h | IC50 (MCF7 cells): 0.5 nM | mouse liver microsomes stability [2]: 22 µL/min/mg protein | EPSA [3]: 98 A^2
